# Data published in patent US10709758B2 (priority 2015, dated 2020).
# Molecular target: TcdB1 (Clostridioides difficile, UniProt P18177)
# Sequence (P18177 2-2366 limits assumed): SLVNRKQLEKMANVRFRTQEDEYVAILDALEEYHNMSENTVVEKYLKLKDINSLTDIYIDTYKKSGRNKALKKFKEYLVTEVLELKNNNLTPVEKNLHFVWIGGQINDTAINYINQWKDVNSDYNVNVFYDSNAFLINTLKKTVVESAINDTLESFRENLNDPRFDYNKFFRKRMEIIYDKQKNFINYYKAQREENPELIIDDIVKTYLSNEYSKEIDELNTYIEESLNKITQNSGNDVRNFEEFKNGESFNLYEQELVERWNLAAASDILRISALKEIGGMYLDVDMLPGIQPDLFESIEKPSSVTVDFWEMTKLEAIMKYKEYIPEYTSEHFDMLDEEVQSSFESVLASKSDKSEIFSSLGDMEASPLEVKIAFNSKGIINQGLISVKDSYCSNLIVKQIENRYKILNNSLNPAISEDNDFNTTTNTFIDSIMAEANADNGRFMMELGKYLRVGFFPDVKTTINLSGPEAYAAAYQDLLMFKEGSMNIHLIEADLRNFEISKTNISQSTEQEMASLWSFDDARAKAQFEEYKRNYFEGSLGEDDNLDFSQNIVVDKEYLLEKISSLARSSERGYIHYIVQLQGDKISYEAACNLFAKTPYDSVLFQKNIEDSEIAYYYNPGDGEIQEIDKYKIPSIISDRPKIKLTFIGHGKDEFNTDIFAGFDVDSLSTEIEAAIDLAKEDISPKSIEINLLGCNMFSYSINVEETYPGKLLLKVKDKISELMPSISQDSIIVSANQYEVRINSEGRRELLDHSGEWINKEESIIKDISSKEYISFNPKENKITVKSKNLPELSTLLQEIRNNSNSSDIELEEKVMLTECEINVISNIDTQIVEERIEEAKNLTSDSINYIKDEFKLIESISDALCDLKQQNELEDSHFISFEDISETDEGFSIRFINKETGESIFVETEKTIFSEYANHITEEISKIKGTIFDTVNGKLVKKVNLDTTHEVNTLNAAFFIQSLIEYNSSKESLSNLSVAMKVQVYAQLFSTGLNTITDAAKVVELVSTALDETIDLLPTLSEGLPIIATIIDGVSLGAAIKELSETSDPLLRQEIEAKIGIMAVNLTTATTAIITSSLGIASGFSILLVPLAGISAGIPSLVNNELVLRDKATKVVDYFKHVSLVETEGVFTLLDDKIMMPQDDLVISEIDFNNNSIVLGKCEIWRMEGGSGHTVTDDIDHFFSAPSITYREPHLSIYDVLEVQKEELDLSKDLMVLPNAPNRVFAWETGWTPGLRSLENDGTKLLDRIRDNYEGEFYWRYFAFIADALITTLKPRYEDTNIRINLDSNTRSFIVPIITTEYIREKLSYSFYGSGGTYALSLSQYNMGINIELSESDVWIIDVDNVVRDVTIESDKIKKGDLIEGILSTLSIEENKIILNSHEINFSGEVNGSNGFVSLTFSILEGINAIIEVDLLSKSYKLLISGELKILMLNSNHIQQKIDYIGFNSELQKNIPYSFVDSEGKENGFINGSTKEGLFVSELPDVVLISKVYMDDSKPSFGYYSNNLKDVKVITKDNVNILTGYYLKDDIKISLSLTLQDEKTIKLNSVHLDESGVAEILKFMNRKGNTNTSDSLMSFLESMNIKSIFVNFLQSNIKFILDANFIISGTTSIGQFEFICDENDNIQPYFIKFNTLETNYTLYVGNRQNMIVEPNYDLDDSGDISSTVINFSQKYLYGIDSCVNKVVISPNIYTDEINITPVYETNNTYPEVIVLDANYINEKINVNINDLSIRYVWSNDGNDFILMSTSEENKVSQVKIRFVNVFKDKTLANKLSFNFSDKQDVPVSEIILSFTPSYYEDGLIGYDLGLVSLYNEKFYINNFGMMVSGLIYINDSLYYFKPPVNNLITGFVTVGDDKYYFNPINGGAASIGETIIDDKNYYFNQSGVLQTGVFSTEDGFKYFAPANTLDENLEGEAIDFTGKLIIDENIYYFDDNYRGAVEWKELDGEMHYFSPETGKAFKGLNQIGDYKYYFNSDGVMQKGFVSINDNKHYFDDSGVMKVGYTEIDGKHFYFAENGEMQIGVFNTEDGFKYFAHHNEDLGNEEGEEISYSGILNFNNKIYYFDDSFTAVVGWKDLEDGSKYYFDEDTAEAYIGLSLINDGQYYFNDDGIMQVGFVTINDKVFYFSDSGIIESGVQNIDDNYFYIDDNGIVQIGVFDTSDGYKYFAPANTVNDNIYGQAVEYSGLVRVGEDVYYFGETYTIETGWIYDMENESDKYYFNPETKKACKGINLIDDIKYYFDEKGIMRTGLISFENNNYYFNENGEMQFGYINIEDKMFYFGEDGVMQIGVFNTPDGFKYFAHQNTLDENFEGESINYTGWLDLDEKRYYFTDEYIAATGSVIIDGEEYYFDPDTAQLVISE
structure (smiles),measurement,value
CC[C@H](C)[C@H](NC(=O)[C@H](CCCCN)NC(=O)[C@H](CC(=O)O)NC(=O)[C@H](CO)NC(=O)[C@@H](NC(=O)[C@@H](NC(=O)[C@H](CC(N)=O)NC(=O)CNC(=O)[C@H](CCCCN)NC(=O)[C@H](Cc1ccccc1)NC(=O)[C@@H](NC(=O)[C@@H](N)CC(N)=O)C(C)C)[C@@H](C)O)[C@@H](C)CC)C(=O)N[C@@H](CO)C(=O)N[C@@H](Cc1ccccc1)C(=O)N[C@@H](CC(N)=O)C(=O)N[C@@H](Cc1ccccc1)C(=O)N[C@@H](CO)C(=O)N[C@@H](CC(=O)O)C(=O)N[C@@H](CCCCN)C(=O)O [PepB2],increase of the 50% toxic concentration (TC50) of TcdB1,500 fold
same,protection from cytotoxicity of TcdB1 over a range of toxin concentrations,protects CHO-K1 cells
